Source: ChEMBL document CHEMBL5291721, “A preclinical secondary pharmacology resource illuminates target-adverse drug reaction associations of marketed drugs” (Nat Commun, 2023)

Legend:
[1] = target: T1, Alpha-1A adrenergic receptor (Homo sapiens, UniProt P35348)
T1 sequence (P35348 whole entry): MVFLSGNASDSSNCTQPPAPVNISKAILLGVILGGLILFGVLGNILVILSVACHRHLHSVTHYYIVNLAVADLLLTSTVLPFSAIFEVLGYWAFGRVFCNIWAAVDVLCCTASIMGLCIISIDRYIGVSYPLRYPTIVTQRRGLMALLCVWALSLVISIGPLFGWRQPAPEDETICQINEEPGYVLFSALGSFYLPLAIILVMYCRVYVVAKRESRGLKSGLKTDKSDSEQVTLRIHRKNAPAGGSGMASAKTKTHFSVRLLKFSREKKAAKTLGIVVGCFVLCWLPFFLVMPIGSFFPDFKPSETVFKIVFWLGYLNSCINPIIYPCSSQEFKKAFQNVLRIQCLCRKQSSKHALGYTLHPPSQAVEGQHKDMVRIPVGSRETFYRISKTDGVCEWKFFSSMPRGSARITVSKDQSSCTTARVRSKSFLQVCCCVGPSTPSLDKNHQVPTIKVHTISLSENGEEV

[2] = target: T2, Type-1 angiotensin II receptor (Homo sapiens, UniProt P30556)
T2 sequence (P30556 whole entry): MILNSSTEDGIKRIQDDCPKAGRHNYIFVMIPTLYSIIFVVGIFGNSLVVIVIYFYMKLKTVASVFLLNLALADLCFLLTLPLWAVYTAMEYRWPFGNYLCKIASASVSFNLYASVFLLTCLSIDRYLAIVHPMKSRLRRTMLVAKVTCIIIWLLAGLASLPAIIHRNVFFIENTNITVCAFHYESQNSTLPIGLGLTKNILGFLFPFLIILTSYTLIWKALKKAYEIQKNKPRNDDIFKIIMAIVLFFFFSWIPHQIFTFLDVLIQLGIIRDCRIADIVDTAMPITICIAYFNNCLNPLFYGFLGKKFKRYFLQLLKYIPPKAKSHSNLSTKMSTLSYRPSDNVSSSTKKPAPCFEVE

Vasopressin V1a receptor = Vasopressin V1a receptor (Homo sapiens, UniProt P37288)
[3] = target: T3, Muscarinic acetylcholine receptor M2 (Homo sapiens, UniProt P08172); type: functional, cell-based
T3 sequence (P08172 whole entry): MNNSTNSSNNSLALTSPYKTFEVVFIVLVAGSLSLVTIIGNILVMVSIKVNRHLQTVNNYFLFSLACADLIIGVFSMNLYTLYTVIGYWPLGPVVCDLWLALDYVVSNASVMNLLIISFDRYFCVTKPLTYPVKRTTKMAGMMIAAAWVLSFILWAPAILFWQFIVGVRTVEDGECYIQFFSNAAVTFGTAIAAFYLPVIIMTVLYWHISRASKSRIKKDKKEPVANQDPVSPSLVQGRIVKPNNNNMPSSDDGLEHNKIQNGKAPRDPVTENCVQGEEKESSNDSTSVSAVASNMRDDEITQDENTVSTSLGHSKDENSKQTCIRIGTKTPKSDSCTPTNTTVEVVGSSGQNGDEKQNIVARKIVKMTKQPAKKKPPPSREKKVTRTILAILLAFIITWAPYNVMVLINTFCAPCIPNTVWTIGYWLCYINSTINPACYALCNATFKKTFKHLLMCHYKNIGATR

[4] = target: T3, Muscarinic acetylcholine receptor M2; type: functional, cell-based; remark: listed apart in the source
[5] = target: Neuronal acetylcholine receptor subunit alpha-4 (Homo sapiens, UniProt P43681)
[6] = target: T4, 5-hydroxytryptamine receptor 3A (Homo sapiens, UniProt P46098); type: functional
T4 sequence (P46098 whole entry): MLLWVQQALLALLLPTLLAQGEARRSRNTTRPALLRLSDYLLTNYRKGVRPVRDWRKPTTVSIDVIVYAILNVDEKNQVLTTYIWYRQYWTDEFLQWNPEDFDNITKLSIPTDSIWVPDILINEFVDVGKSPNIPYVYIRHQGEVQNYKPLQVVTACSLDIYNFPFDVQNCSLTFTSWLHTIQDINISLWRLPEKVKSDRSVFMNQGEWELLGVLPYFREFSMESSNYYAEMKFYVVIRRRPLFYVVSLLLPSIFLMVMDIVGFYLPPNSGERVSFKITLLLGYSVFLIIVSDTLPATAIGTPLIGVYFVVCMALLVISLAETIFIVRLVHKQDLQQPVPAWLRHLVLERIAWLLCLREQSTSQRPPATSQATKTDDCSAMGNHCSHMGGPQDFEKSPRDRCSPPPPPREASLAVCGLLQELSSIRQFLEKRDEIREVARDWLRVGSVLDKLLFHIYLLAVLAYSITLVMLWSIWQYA

[7] = target: Voltage-gated inwardly rectifying potassium channel KCNH2 (Homo sapiens, UniProt Q12809); type: functional; settings: read-out: AC50
Melanocortin receptor 3 = Melanocortin receptor 3 (Homo sapiens, UniProt P41968)
[8] = target: T5, Amine oxidase [flavin-containing] A (Homo sapiens, UniProt P21397); type: functional
T5 sequence (P21397 whole entry): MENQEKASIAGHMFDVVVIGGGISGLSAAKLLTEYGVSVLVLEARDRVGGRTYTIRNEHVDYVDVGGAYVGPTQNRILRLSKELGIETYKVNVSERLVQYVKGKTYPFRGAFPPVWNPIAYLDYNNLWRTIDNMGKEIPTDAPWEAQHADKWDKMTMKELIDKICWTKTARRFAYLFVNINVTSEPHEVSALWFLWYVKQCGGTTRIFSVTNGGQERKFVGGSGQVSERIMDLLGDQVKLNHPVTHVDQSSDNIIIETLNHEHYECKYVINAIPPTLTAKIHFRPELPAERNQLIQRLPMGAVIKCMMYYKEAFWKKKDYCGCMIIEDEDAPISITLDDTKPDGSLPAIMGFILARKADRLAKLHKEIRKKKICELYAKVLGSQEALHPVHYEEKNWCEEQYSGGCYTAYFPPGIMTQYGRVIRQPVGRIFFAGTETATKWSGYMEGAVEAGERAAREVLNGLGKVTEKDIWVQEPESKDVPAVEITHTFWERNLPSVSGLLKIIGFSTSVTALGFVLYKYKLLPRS

[9] = target: Kappa-type opioid receptor (Homo sapiens, UniProt P41145)
Also: assay procedure not described here.

Sequence of Melanocortin receptor 3 (P41968 whole entry): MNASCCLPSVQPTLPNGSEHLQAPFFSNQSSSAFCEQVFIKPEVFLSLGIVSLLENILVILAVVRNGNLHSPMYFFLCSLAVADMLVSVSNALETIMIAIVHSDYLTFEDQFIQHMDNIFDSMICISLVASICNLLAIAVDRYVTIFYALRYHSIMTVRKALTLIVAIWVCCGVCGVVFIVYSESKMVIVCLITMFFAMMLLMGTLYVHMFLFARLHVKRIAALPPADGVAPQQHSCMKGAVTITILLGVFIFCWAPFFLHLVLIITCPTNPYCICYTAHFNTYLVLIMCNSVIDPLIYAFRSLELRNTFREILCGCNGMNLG
Sequence of Kappa-type opioid receptor (P41145 whole entry): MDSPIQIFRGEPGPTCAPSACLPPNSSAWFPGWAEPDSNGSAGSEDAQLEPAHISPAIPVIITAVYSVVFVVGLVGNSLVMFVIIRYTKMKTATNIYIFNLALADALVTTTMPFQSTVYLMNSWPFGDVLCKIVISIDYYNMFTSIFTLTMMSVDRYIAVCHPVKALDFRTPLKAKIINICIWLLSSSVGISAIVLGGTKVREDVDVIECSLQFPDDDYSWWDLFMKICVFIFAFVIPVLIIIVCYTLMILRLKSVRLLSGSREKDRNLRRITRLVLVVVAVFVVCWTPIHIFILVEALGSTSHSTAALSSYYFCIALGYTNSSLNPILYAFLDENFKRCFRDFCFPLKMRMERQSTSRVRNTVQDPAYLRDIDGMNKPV
Sequence of Voltage-gated inwardly rectifying potassium channel KCNH2 (Q12809 whole entry): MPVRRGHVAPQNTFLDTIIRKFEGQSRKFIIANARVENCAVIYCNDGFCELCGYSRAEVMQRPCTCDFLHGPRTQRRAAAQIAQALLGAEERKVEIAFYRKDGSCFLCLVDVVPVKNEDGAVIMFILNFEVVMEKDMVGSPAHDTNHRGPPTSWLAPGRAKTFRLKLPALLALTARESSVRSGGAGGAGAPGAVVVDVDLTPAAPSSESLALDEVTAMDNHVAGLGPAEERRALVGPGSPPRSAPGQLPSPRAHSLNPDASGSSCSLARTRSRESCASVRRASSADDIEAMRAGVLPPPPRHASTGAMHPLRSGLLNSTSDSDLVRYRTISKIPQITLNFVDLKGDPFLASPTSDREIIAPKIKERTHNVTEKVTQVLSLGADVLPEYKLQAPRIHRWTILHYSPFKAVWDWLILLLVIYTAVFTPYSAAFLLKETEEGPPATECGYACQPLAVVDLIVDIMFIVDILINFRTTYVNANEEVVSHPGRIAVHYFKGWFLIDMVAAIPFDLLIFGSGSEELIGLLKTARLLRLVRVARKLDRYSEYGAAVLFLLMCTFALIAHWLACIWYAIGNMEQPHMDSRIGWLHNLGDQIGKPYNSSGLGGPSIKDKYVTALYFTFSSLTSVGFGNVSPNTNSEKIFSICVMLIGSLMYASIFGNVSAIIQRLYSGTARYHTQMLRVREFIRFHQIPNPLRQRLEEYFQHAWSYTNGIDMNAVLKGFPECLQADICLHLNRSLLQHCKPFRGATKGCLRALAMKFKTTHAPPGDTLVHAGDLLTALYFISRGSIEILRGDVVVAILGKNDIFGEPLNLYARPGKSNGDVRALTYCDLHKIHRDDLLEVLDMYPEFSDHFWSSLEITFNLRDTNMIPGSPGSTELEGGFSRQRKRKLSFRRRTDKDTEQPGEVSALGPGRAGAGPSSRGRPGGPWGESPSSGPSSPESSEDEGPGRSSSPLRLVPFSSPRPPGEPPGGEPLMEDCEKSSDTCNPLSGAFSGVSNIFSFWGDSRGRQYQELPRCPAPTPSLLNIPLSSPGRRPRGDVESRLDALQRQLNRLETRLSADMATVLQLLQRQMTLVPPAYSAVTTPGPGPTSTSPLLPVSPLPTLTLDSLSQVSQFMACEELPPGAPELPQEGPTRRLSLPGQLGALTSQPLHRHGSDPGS
Sequence of Vasopressin V1a receptor (P37288 whole entry): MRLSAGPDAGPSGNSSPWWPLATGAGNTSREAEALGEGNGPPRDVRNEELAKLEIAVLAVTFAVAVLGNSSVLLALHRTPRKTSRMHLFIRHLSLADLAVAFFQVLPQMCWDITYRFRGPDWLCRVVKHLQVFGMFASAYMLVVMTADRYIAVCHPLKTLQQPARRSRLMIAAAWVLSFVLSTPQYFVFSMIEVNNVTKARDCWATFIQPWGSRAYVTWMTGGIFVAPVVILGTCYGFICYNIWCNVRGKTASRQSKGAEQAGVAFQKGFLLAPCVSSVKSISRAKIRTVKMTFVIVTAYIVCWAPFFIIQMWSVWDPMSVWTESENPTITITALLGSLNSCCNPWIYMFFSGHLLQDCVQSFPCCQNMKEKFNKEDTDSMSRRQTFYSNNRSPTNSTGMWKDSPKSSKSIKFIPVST
Sequence of Neuronal acetylcholine receptor subunit alpha-4 (P43681 whole entry): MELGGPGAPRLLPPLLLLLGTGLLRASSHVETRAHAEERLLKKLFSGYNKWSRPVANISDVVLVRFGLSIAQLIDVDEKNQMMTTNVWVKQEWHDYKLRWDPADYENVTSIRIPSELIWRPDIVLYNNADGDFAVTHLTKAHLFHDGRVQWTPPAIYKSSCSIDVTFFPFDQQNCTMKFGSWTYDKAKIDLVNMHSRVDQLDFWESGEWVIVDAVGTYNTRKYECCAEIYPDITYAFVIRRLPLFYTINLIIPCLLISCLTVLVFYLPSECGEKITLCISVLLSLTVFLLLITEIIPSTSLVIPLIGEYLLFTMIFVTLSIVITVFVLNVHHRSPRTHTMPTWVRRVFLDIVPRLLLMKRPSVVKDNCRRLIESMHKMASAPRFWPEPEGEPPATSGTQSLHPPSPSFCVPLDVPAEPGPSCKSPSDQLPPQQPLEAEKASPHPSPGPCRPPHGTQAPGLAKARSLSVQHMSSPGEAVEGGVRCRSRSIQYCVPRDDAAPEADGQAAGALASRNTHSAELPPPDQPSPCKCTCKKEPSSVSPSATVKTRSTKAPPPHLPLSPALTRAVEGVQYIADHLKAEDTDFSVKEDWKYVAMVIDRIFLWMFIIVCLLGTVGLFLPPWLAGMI

Row | SMILES | AC50 [1] [µM] | AC50 [2] [µM] | AC50 (Vasopressin V1a receptor) [µM] | AC50 [3] [µM] | AC50 [4] [µM] | AC50 [5] [µM] | AC50 [6] [µM] | AC50 [7] [µM] | AC50 (Melanocortin receptor 3) [µM] | AC50 [8] [µM] | AC50 [9] [µM]
1 | O=C1Nc2ccc(Cl)cc2[C@@](C#CC2CC2)(C(F)(F)F)O1 [EFAVIRENZ] | > 10 | 13 | > 30 | > 10 | > 10 | > 30 | > 30 | > 30 | > 30 | > 30 | 
2 | CO[C@H]1C[C@@H]2CC[C@@H](C)[C@@](O)(O2)C(=O)C(=O)N2CCCC[C@H]2C(=O)O[C@H]([C@H](C)C[C@@H]2CC[C@@H](O)[C@H](OC)C2)CC(=O)[C@H](C)/C=C(\C)[C@@H](O)[C@@H](OC)C(=O)[C@H](C)C[C@H](C)/C=C/C=C/C=C/1C [SIROLIMUS] | 0.156 | > 30 | > 30 | > 10 | > 10 | > 10 | > 30 | > 30 | > 30 | 5.6 | > 10
3 | Cc1ccc(-c2cc(C(F)(F)F)nn2-c2ccc(S(N)(=O)=O)cc2)cc1 [CELECOXIB] | > 10 | > 10 | > 30 | > 10 | > 10 | > 10 | > 30 |  | > 10 | > 10 | > 10
4 | O=P1(NCCCl)OCCCN1CCCl (configuration not stated) [IFOSFAMIDE] | > 30 | > 30 |  | > 30 | > 30 | > 30 | > 30 | > 30 | > 30 | > 30 | > 30
5 | CNC(=O)c1ccccc1Sc1ccc2c(/C=C/c3ccccn3)n[nH]c2c1 [AXITINIB] | > 10 | > 30 | > 30 | > 30 | 4.2 | > 30 | > 30 | > 30 | > 30 | > 30 | 
6 | CN(C)/N=N/c1[nH]cnc1C(N)=O [DACARBAZINE] | > 10 | > 10 |  | > 10 | > 10 | > 10 | > 30 | > 30 | > 10 | > 10 | > 10
7 | CC[C@H]1[C@@H](O)[C@@H]2[C@H](CC[C@]3(C)[C@@H]([C@H](C)CCC(=O)O)CC[C@@H]23)[C@@]2(C)CC[C@@H](O)C[C@@H]12 [OBETICHOLIC ACID] |  | > 30 | > 30 | > 30 | 16 | > 30 | > 30 | > 30 | > 30 | > 30 | > 30
8 | CCCCN1C[C@H](O)[C@@H](O)[C@H](O)[C@H]1CO |  | > 30 | > 30 | > 30 | > 30 | > 30 | > 30 | > 30 | > 30 | > 30 | > 30
9 | Clc1ccc(C(c2ccccc2Cl)C(Cl)Cl)cc1 (configuration not stated) [MITOTANE] | > 10 | > 10 |  | > 10 | > 10 | > 10 | > 30 | > 30 | > 10 | > 10 | > 10
10 | Cc1nc([N+](=O)[O-])cn1-c1ccc([N+](=O)[O-])cc1 [NITREFAZOLE] |  | > 30 | > 30 | > 30 | > 30 | > 30 | > 30 | > 30 | > 30 | > 30 | > 30
11 | Nc1nc(NC2CC2)c2ncn([C@H]3C=C[C@@H](CO)C3)c2n1 [ABACAVIR] |  | > 30 | > 30 | > 30 | > 30 | > 30 | > 30 | > 30 | > 30 | > 30 | > 30
12 | CN(C)CCC(c1ccc(Cl)cc1)c1ccccn1 (configuration not stated) [CHLORPHENIRAMINE] | 7.01 | > 30 | > 10 | > 10 | > 10 | > 10 | > 10 |  | > 30 | > 10 | > 10
13 | CCCSc1ccc2nc(NC(=O)OC)[nH]c2c1 [ALBENDAZOLE] | > 10 | > 10 |  | > 10 | > 10 | > 10 | > 30 | 10.4 | > 30 | > 10 | > 10
14 | CC(=O)NCCCS(=O)(=O)O [ACAMPROSATE] |  | > 30 | > 30 | > 30 | > 30 | > 30 | > 30 | > 30 | > 30 | > 30 | > 30
15 | Cc1c(C(=O)NN2CCCCC2)nn(-c2ccc(Cl)cc2Cl)c1-c1ccc(Cl)cc1 [RIMONABANT] | > 10 | 16.9 | 30 |  |  | > 10 | > 30 | > 30 | 15.9 | > 30 | 
16 | COc1ccccc1OCC(O)CN1CCN(CC(=O)Nc2c(C)cccc2C)CC1 (configuration not stated) [RANOLAZINE] | 13 | > 30 | > 30 | > 30 | > 30 | > 30 | > 30 |  | > 30 | > 30 | > 30
17 | CC1=C(C(=O)O)N2C(=O)[C@@H](NC(=O)[C@H](N)c3ccccc3)[C@H]2SC1 [CEPHALEXIN ANHYDROUS] | 5.78 | > 30 | > 10 |  |  | > 10 | > 30 |  | > 30 | > 10 | > 10
